Measurements reported in patent publication US20070128217A1 (priority 2003, published 2007).

How the values were obtained:
[1] = test system: antibodies in sera from SARS patients (sera 1a, 1b, 2, 6, 37, 62, London, SARS-yellow, SARS-green); type: binding, human; set-up: Binding of serum 6 to linear peptides of protein X1 of SARS-CoV Urbani / Binding of serum 37 to linear peptides of protein X1 of SARS-CoV Urbani / Binding of serum 6 to looped/cyclic peptide (PEPSCAN-ELISA) / Binding of serum 37 to looped/cyclic peptide (PEPSCAN-ELISA) / Binding of serum 37 to looped/cyclic peptides of protein X1 of SARS-CoV Urbani / Binding of serum 6 to linear peptides of protein X2 / Binding of serum 37 to linear peptides of protein X2 / Binding of serum 37 to looped/cyclic peptides of protein X2 of SARS-CoV Urbani / Binding of serum 6 to linear peptides of protein M of SARS-CoV Urbani / Binding of serum 37 to linear peptides of protein M of SARS-CoV Urbani / Binding of serum 6 to looped/cyclic peptides of protein M of SARS-CoV Urbani / Binding of serum 37 to looped/cyclic peptides of protein M of SARS-CoV Urbani / Binding of serum 6 to linear peptides of protein X3 of SARS-CoV Urbani / Binding of serum 37 to linear peptides of protein X3 of SARS-CoV Urbani / Binding of serum 37 to looped/cyclic peptides of protein X3 of SARS-CoV Urbani / Binding of serum 6 to linear peptides of protein X4 of SARS-CoV Urbani / Binding of serum 37 to linear peptides of protein X4 of SARS-CoV Urbani / Binding of serum 37 to looped/cyclic peptides of protein X4 of SARS-CoV Urbani / Binding of serum 6 to linear peptides of protein X5 of SARS-CoV Urbani / Binding of serum 37 to linear peptides of protein X5 of SARS-CoV Urbani / Binding of serum 37 to looped/cyclic peptides of protein X5 of SARS-CoV Urbani / Binding of serum 6 to linear peptides of protein N of SARS-CoV Urbani / Binding of serum 37 to linear peptides of protein N of SARS-CoV Urbani / Binding of serum 6 to linear peptide (PEPSCAN-ELISA) / Binding of serum 1a to looped/cyclic peptides of protein N of SARS-CoV Urbani / Binding of serum 1b to looped/cyclic peptides of protein N of SARS-CoV Urbani / Binding of serum 2 to looped/cyclic peptides of protein N of SARS-CoV Urbani / Binding of serum 6 to looped/cyclic peptides of protein N of SARS-CoV Urbani / Binding of serum 37 to looped/cyclic peptides of protein N of SARS-CoV Urbani / Binding of serum 62 to looped/cyclic peptides of protein N of SARS-CoV Urbani / Binding of serum London to looped/cyclic peptides of protein N of SARS-CoV Urbani / Binding of serum SARS-green to looped/cyclic peptides of protein N of SARS-CoV Urbani: unit not given here
[2] = test system: control sera (pooled serum of ten healthy LUMC hospital workers; commercial negative donor pooled serum from the Dutch bloodbank); type: binding, human; set-up: Binding of Control serum LUMC to linear peptides / Binding of Control serum Blood-bank to linear peptides / Binding of Control serum LUMC to looped peptides / Binding of Control Serum Blood-Bank to Looped peptides / Binding of Control serum LUMC to linear peptides of the protein M of SARS-CoV Urbani / Binding of Control serum Blood-bank to linear peptides of the protein M of SARS-CoV Urbani / Binding of Control serum LUMC to looped peptides of the protein M of SARS-CoV Urbani / Binding of Control Serum Blood-Bank to Looped peptides of the protein M of SARS-CoV Urbani: unit not given here
[3] = test system: rabbit serum obtained by immunizing a rabbit with the SARS-CoV strain Frankfurt 1; type: binding; set-up: Binding of a rabbit serum to linear peptides / Binding of a rabbit serum to looped peptides / Rabbit serum linear peptides / Rabbit serum looped peptides / Binding of a rabbit serum to linear peptides of protein N of SARS-CoV Urbani (Rabbit serum linear peptides) / Binding of a rabbit serum to looped/cyclic peptides of protein N of SARS-CoV Urbani (Rabbit serum looped peptides): unit not given here

| Sequence | Binding of serum 1a to linear peptides of protein X2 [1] | Binding of serum 1a to looped/cyclic peptides of protein X2 of SARS-CoV Urbani [1] | Binding of serum 1b to linear peptides of protein X2 [1] | Binding of serum 1b to looped/cyclic peptides of protein X2 of SARS-CoV Urbani [1] | Binding of serum 2 to linear peptides of protein X2 [1] | Binding of serum 2 to looped/cyclic peptides of protein X2 of SARS-CoV Urbani [1] | Binding of serum 6 to linear peptides of protein X2 [1] | Binding of serum 6 to looped/cyclic peptides of protein X2 of SARS-CoV Urbani [1] | Binding of serum 37 to linear peptides of protein X2 [1] | Binding of serum 37 to looped/cyclic peptides of protein X2 of SARS-CoV Urbani [1] | Binding of serum 62 to linear peptides of protein X2 [1] | Binding of serum 62 to looped/cyclic peptides of protein X2 of SARS-CoV Urbani [1] | Binding of serum London to linear peptides of protein X2 [1] | Binding of serum London to looped/cyclic peptides of protein X2 of SARS-CoV Urbani [1] | Binding of serum SARS-green to linear peptides of protein X2 [1] | Binding of serum SARS-green to looped/cyclic peptides of protein X2 of SARS-CoV Urbani [1] | Binding of Control Serum Blood-Bank to Looped peptides [2] | Binding of Control serum Blood-bank to linear peptides [2] | Binding of Control serum LUMC to linear peptides [2] | Binding of Control serum LUMC to looped peptides [2] | other results |
| --- | --- | --- | --- | --- | --- | --- | --- | --- | --- | --- | --- | --- | --- | --- | --- | --- | --- | --- | --- | --- | --- |
| QLSLLKVTAFQHQNS | 0.5 | 0.5 | 0.4 | 0.5 | 0.3 | 0.3 | 0.4 | 0.3 | 0.5 | 0.4 | 0.3 | 0.6 | 0.3 | 0.3 | 0.1 | 0.2 | 0.5 | 0.4 | 0.6 | 0.6 | Binding of serum SARS-yellow to linear peptides of protein X2 [1]: 0.1; Binding of serum SARS-yellow to looped/cyclic peptides of protein X2 of SARS-CoV Urbani [1]: 0.3; Binding of a rabbit serum to linear peptides [3]: 0.6; Binding of a rabbit serum to looped peptides [3]: 0.5 |
| QQELYSPLFLIVAAL | – | – | – | – | – | – | – | – | – | – | – | – | – | – | – | – | 0.6 | 0.5 | 0.4 | 0.6 | Binding of serum 1a to linear peptides of protein X4 of SARS-CoV Urbani [1]: 0.7; Binding of serum 1a to looped/cyclic peptides of protein X4 of SARS-CoV Urbani [1]: 0.7; Binding of serum 1b to linear peptides of protein X4 of SARS-CoV Urbani [1]: 0.5; Binding of serum 1b to looped/cyclic peptides of protein X4 of SARS-CoV Urbani [1]: 0.4; Binding of serum 2 to linear peptides of protein X4 of SARS-CoV Urbani [1]: 0.5; Binding of serum 2 to looped/cyclic peptides of protein X4 of SARS-CoV Urbani [1]: 0.6; Binding of serum 6 to linear peptides of protein X4 of SARS-CoV Urbani [1]: 0.7; Binding of serum 6 to looped/cyclic peptides of protein X4 of SARS-CoV Urbani [1]: 0.4; Binding of serum 37 to linear peptides of protein X4 of SARS-CoV Urbani [1]: 0.7; Binding of serum 37 to looped/cyclic peptides of protein X4 of SARS-CoV Urbani [1]: 0.6; Binding of serum 62 to linear peptides of protein X4 of SARS-CoV Urbani [1]: 0.6; Binding of serum 62 to looped/cyclic peptides of protein X4 of SARS-CoV Urbani [1]: 0.6; Binding of serum London to linear peptides of protein X4 of SARS-CoV Urbani [1]: 0.8; Binding of serum London to looped/cyclic peptides of protein X4 of SARS-CoV Urbani [1]: 0.3; Binding of serum SARS-green to linear peptides of protein X4 of SARS-CoV Urbani [1]: 0.6; Binding of serum SARS-green to looped/cyclic peptides of protein X4 of SARS-CoV Urbani [1]: 0.5; Binding of serum SARS-yellow to linear peptides of protein X4 of SARS-CoV Urbani [1]: 0.6; Binding of serum SARS-yellow to looped/cyclic peptides of protein X4 of SARS-CoV Urbani [1]: 0.7; Rabbit serum linear peptides [3]: 0.4; Rabbit serum looped peptides [3]: 0.4 |
| QQWIQFMMSRRRLLA | 0.6 | 0.6 | 0.4 | 0.5 | 0.4 | 0.6 | 0.8 | 0.4 | 0.6 | 0.6 | 0.6 | 0.8 | 0.5 | 0.3 | 0.6 | 0.5 | 0.7 | 0.8 | 0.6 | 0.5 | Binding of serum SARS-yellow to linear peptides of protein X2 [1]: 0.6; Binding of serum SARS-yellow to looped/cyclic peptides of protein X2 of SARS-CoV Urbani [1]: 0.4; Binding of a rabbit serum to linear peptides [3]: 0.8; Binding of a rabbit serum to looped peptides [3]: 1.5 |
